# Literature values in patent US12552830B2, “Steroidal compound derivatives as therapeutic agents” (priority 2020, dated 2026).
# “Also recorded” adds a separate entry of the source.
# Experiments:
# [1] = system: transactivator of transcription (Tat)
# HIV = conditions: latent CD4+T cells, in vitro
# [2] = system: human umbilical endothelial cell (HUVEC)
Compound,inhibition of Tat [1],viral reactivation of HIV (HIV),"IC50 ([2]; HUVECs, read-out: IC50, selective anti-proliferative activity of HUVECs) [nM]","selectivity for HUVECs over other cell lines ([2]; over NHDF, KB3-1, K562 and Neuro2A cells) [fold]"
"CN(C)[C@H]1C[C@@]23CC[C@@]4(O2)C(=CC[C@]2(C)C(c5ccc6ccncc6c5)=CCC24)C=C3[C@@H](O)[C@@H]1O (stereo partly shown) [dCA, didehydro-cortistatin A]",most potent inhibitor of transactivator of transcription (Tat),prevents viral reactivation of HIV in vitro; also recorded: prevents viral reactivation in latent CD4+T cells in vitro,–,–
cortistatin A,–,–,1.8,3000
